According to patent publication US5043450A, “8-alkoxyquinolonecarboxylic acid and salts thereof” (priority 1986, dated 1991):
In brackets after ≈: the same amount, converted by molar mass.

Columns and labels:
Format in all cases: cell-based
P. maltophilia GIFU 2491 = assay: Antibacterial spectra, MIC; details: Stenotrophomonas maltophilia, GIFU2491; 10^6 cells/ml; Gram -; read-out: MIC
C. perfringens KYA 13123 = assay: microbe, parasite or virus in culture; details: Clostridium perfringens, KYA13123
[1] = system: Enterobacter cloacae IID 977; assay: Antibacterial spectra, MIC; details: IID977, 10^6 cells/ml, Gram -, read-out: MIC
[2] = system: Pseudomonas aeruginosa V-1; assay: Antibacterial spectra, MIC; details: V1, 10^6 cells/ml, Gram -, read-out: MIC
[3] = system: B. thetaiotaomicron (0661); assay: Antibacterial spectra, MIC; details: Bacteroides thetaiotaomicron; 10^6 cells/ml; Gram -; read-out: MIC
[4] = system: Serratia marcescens IID 618; assay: Antibacterial spectra, MIC; details: IID618, 10^6 cells/ml, Gram -, read-out: MIC
F. necrophorum S-45 = assay: Antibacterial spectra, MIC; details: Fusobacterium necrophorum, S45; 10^6 cells/ml; Gram -; read-out: MIC
P. cepacia GIFU 518 = assay: Antibacterial spectra, MIC; details: Burkholderia cepacia, GIFU518; 10^6 cells/ml; Gram -; read-out: MIC
S. pyogenes IID 692 = assay: Antibacterial spectra, MIC; details: Streptococcus pyogenes, IID692; 10^6 cells/ml; Gram +; read-out: MIC
F. varium KYA 8501 = assay: Antibacterial spectra, MIC; details: Fusobacterium varium, KYA8501; 10^6 cells/ml; Gram -; read-out: MIC
[5] = system: Alcaligenes faecalis 0114002; assay: Antibacterial spectra, MIC; details: 10^6 cells/ml, Gram -, read-out: MIC
[6] = system: Eubacterium lentum GAI 5242; assay: Antibacterial spectra, MIC; details: Eggerthella lenta, GAI5242
S. epidermidis IID 866 = assay: Antibacterial spectra, MIC; details: Staphylococcus epidermidis, IID866; 10^6 cells/ml; Gram +; read-out: MIC
P. aeruginosa IFO 12689 = assay: Antibacterial spectra, MIC; details: Pseudomonas aeruginosa, IFO12689; 10^6 cells/ml; Gram -; read-out: MIC
[7] = system: Citrobacter freundii IID 976; assay: Antibacterial spectra, MIC; details: IID976, 10^6 cells/ml, Gram -, read-out: MIC
[8] = system: Salmonella enteritidis IID 604; assay: Antibacterial spectra, MIC; details: Salmonella enterica; 10^6 cells/ml; Gram -; read-out: MIC
[9] = system: Morganella morganii IID 602; assay: Antibacterial spectra, MIC; details: IID602, 10^6 cells/ml, Gram -, read-out: MIC
Pst. micros UPI 5464-1 = assay: Antibacterial spectra, MIC; details: Parvimonas micra, UPI54641; 10^6 cells/ml; Gram +; read-out: MIC
S. pneumoniae IID 552 = assay: Antibacterial spectra, MIC; details: Streptococcus pneumoniae, IID552; 10^6 cells/ml; Gram +; read-out: MIC
[10] = system: Escherichia coli NIHJ JC-2; assay: Antibacterial spectra, MIC; details: NIHJJC2
Bacilus subtilis PCI 219 = assay: Antibacterial spectra, MIC; details: Bacillus subtilis, PCI219
[11] = system: Staphylococcus aureus 209 P; assay: Antibacterial spectra, MIC; details: 10^6 cells/ml, Gram +, read-out: MIC
P. aeruginosa IID 1210 = assay: Antibacterial spectra, MIC; details: Pseudomonas aeruginosa, IID1210; 10^6 cells/ml; Gram -; read-out: MIC
[12] = system: Klebsiella pneumoniae KY(GN)6445; assay: Antibacterial spectra, MIC
K. pneumoniae 1-220S = assay: Antibacterial spectra, MIC; details: Klebsiella pneumoniae, 1220S; 10^6 cells/ml; Gram -; read-out: MIC
[13] = system: Bacteroides fragilis GM 7000; assay: Antibacterial spectra, MIC; details: GM7000, 10^6 cells/ml, Gram -, read-out: MIC
B. distasonis 8503 = assay: Antibacterial spectra, MIC; details: Parabacteroides distasonis, 10^6 cells/ml, Gram -, read-out: MIC
[14] = system: Fusobacterium mortiferum 4249; assay: Antibacterial spectra, MIC; details: 10^6 cells/ml, Gram -, read-out: MIC
B. vulgatus KYA 29327 = assay: Antibacterial spectra, MIC; details: Phocaeicola vulgatus, KYA29327; 10^6 cells/ml; Gram -; read-out: MIC
[15] = system: Proteus vulgaris IFO 3167; assay: Antibacterial spectra, MIC; details: IFO3167, 10^6 cells/ml, Gram -
Procedure: (§1) The antibacterial test was carried out according to the method designated by Japan Society of Chemotherapy.

E. coli ML 4707 = assay: Antibacterial spectra, MIC; details: Escherichia coli, ML4707; 10^6 cells/ml; Gram -
Procedure: as §1

[16] = system: Streptococcus pyogenes (S-8); assay: Antibacterial spectra, MIC; details: 10^6 cells/ml, Gram +
Procedure: as §1

E. faecalis IID 682 = assay: Antibacterial spectra, MIC; details: Enterococcus faecalis, IID682; 10^6 cells/ml; Gram +
Procedure: as §1

Shigella sonnei IID 969 = assay: Antibacterial spectra, MIC; details: IID969, 10^6 cells/ml, Gram -
Procedure: as §1

[17] = system: Yersinia enterocolitica IID 981; assay: Antibacterial spectra, MIC; details: IID981, 10^6 cells/ml, Gram -, read-out: MIC

CCOc1c(N2CCNCC2)c(F)cc2c(=O)c(C(=O)O)cn(C3CC3)c12 [Exp. 18, 1-cyclopropyl-6-fluoro-1,4-dihydro-8-ethoxy-4-oxo-7-(1-piperazinyl)-3-quinolinecarboxylic acid]
MIC (P. maltophilia GIFU 2491): 0.39 µg/mL (≈ 1.04 µM) | MIC (C. perfringens KYA 13123): 1.56 µg/mL (≈ 4.16 µM) | MIC [1]: 0.2 µg/mL (≈ 0.533 µM) | MIC [2]: 0.78 µg/mL (≈ 2.08 µM) | MIC [3]: 12.5 µg/mL (≈ 33.3 µM) | MIC [4]: 0.2 µg/mL (≈ 0.533 µM) | MIC (F. necrophorum S-45): 3.13 µg/mL (≈ 8.34 µM) | MIC (P. cepacia GIFU 518): 3.13 µg/mL (≈ 8.34 µM) | MIC (S. pyogenes IID 692): 3.13 µg/mL (≈ 8.34 µM) | MIC (F. varium KYA 8501): 25 µg/mL (≈ 66.6 µM) | MIC [5]: 0.78 µg/mL (≈ 2.08 µM) | MIC [6]: 1.56 µg/mL (≈ 4.16 µM) | MIC (S. epidermidis IID 866): 0.39 µg/mL (≈ 1.04 µM) | MIC (P. aeruginosa IFO 12689): 3.13 µg/mL (≈ 8.34 µM) | MIC [7]: 0.1 µg/mL (≈ 0.266 µM) | MIC [8]: 0.1 µg/mL (≈ 0.266 µM) | MIC [9]: 0.39 µg/mL (≈ 1.04 µM) | MIC (Pst. micros UPI 5464-1): 0.78 µg/mL (≈ 2.08 µM) | MIC (S. pneumoniae IID 552): 0.78 µg/mL (≈ 2.08 µM) | MIC [10]: ≤ 0.05 µg/mL | MIC (Bacilus subtilis PCI 219): ≤ 0.05 µg/mL | MIC [11]: 0.2 µg/mL (≈ 0.533 µM) | MIC (P. aeruginosa IID 1210): 6.25 µg/mL (≈ 16.6 µM) | MIC [12]: ≤ 0.05 µg/mL | MIC (K. pneumoniae 1-220S): 0.2 µg/mL (≈ 0.533 µM) | MIC [13]: 3.13 µg/mL (≈ 8.34 µM) | MIC (B. distasonis 8503): 12.5 µg/mL (≈ 33.3 µM) | MIC [14]: 3.13 µg/mL (≈ 8.34 µM) | MIC (B. vulgatus KYA 29327): 12.5 µg/mL (≈ 33.3 µM) | MIC [15]: ≤ 0.05 µg/mL | MIC (E. coli ML 4707): ≤ 0.05 µg/mL | MIC [16]: 1.56 µg/mL | MIC (E. faecalis IID 682): 1.56 µg/mL | MIC (Shigella sonnei IID 969): ≤ 0.05 µg/mL | MIC [17]: 0.2 µg/mL (≈ 0.533 µM)
